Biological target: T1, KATP channels (Homo sapiens, UniProt O60706+Q14654)
T1 construct: TE671 human medulloblastoma cells were obtained from ATCC; host or cells: TE671 human medulloblastoma cells
Assay: Potassium Channel Assay (FLIPR membrane potential, TE671 cells)
Assay type: cell-based
Settings: TE671 human medulloblastoma cells, Membrane Potential Assay Dye, room temperature, hyperpolarization from KATP channel opening
Method: TE671 human medulloblastoma cells were obtained from ATCC and grown in Dulbecco's modified Eagle's medium (DMEM) supplemented with 10% fetal bovine serum, 100 U/ml penicillin and 100 U/ml streptomycine.
The day before testing, the cells were plated in black 96-well plates at 50K/well. On the day of testing, the growth media was removed, then 100 μl of FLIPR buffer (20 mM HEPES, 120 mM NaCl, 2 mM KCl, 2 mM CaCl2, 1 mM MgCl2, 5 mM Glucose) and 100 μl of Membrane Potential Assay Dye (Molecular Devices) dissolved in FLIPR buffer were added to each well. The cells were incubated at room temperature for 15 to 30 min.
The effect of test compounds on KATP channels were evaluated on a fluorometric imaging plate reader (FLIPR, Molecular Devices) at room temperature. After a baseline period, 50 μl of 5× stock solution of test compound prepared in FLIPR buffer was added and fluorescent change was monitored for 3 minutes. After this reading, glyburide, a KATP channel blocker, was added to a final concentration of 5 μM to check the specificity of the test compound as a KATP channel openers. Hyperpolarization resulting from KATP channel opening was observed as a decrease in fluorescent intensity.
Representative compounds of the present invention were tested according to the procedure described above, with results as listed in Table 7, below.

T1 sequence (O60706 1-1549 isoform O60706-2): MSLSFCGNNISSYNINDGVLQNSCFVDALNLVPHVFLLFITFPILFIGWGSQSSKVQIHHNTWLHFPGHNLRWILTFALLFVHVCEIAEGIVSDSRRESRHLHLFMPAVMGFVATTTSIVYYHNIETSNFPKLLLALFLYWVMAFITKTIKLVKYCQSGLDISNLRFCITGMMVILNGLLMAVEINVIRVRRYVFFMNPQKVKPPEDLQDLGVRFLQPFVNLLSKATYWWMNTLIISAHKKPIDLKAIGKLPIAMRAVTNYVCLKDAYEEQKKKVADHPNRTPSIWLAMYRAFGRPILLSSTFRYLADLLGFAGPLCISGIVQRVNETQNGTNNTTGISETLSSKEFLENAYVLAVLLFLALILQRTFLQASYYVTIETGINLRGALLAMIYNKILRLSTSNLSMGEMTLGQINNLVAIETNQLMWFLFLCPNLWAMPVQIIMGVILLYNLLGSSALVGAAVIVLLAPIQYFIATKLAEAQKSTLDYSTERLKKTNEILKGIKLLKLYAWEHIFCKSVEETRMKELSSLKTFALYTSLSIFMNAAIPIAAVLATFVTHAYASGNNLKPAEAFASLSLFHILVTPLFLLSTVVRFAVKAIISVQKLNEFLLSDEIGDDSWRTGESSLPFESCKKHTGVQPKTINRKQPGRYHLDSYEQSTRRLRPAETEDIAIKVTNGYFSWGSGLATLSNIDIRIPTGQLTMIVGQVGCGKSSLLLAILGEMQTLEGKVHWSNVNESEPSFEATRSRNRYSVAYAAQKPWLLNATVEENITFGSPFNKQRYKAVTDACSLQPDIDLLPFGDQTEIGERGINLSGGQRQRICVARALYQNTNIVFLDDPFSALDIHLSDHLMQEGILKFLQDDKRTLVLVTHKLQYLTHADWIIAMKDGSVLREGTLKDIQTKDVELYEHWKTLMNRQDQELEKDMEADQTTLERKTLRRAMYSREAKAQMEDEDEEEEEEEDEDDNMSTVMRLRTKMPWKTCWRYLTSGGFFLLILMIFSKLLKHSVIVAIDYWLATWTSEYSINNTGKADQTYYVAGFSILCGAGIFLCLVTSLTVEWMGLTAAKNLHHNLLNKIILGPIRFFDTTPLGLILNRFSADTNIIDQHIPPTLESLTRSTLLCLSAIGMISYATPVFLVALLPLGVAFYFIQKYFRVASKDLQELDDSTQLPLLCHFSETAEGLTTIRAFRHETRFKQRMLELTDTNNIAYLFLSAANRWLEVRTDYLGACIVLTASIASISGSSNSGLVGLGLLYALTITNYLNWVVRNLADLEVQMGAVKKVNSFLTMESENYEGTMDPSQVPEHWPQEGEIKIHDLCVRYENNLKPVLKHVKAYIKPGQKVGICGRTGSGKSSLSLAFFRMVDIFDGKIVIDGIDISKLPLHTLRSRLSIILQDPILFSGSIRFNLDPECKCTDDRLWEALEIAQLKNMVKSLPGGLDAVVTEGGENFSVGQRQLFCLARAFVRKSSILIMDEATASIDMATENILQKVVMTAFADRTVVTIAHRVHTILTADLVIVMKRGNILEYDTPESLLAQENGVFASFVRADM
T1 sequence (Q14654 whole entry): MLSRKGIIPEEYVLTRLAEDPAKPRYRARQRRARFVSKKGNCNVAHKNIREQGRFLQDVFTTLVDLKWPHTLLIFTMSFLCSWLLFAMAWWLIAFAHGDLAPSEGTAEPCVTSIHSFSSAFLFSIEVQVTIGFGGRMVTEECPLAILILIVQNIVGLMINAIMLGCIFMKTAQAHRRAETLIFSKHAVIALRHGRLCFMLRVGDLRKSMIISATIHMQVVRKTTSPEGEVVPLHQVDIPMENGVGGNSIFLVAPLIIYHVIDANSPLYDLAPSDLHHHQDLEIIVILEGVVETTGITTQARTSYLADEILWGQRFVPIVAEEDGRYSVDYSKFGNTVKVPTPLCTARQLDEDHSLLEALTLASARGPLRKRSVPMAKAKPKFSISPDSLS

Structure (SMILES)	EC50 [µM]
CC1(C)Oc2ccc(Cl)cc2[C@@H](Oc2ccn(-c3ccccc3)n2)[C@@H]1O (racemic) [Compound 60, 6-Chloro-2,2-dimethyl-4-(1-phenyl-1H-pyrazol-3-yloxy)-chroman-3-ol]	> 30
CC1(C)Oc2ccc(C#N)cc2[C@@H](NP(C)(=O)c2ccccc2)[C@@H]1O (stereo partly shown) [Compound 28]	18.6
CC1(C)C=C(Nc2nc(=O)c3ccccc3[nH]2)c2cc(C#N)ccc2O1 [Compound 46, 2,2-Dimethyl-4-(4-oxo-1,4-dihydro-quinazolin-2-ylamino)-2H-chromene-6-carbonitrile]	28.3
CC1(C)Oc2ccc(S(=O)(=O)c3ccc(Cl)cc3)cc2[C@@H](Oc2noc3cc(Cl)ccc23)[C@@H]1O [Compound 101, 6-(4-Chloro-benzenesulfonyl)-4R-(6-chloro-benzo[d]isoxazol-3-yloxy)-2,2-dimethyl-chroman-3S-ol]	> 30
CC1(C)Oc2ccc(C#N)cc2[C@@H](n2nc(-c3ccc(Cl)cc3)ccc2=O)[C@@H]1O (racemic) [Compound 14, 4-[3-(4-Chloro-phenyl)-6-oxo-6H-pyridazin-1-yl]-3-hydroxy-2,2-dimethyl-chroman-6-carbonitrile]	> 30
CC1(C)Oc2cc(Cl)c(Cl)cc2[C@@H](Nc2noc3ccc(Cl)cc23)[C@@H]1O [Compound 91, 6,7-Dichloro-4R-(5-chloro-benzo[d]isoxazol-3-ylamino)-2,2-dimethyl-chroman-3S-ol]	24.8
CC1(C)C=C(n2c(N)nc3cc(Cl)ccc32)c2cc(C#N)ccc2O1 [Compound 45, 4-(2-Amino-5-chloro-benzoimidazol-1-yl)-2,2-dimethyl-2H-chromene-6-carbonitrile]	> 30
N#Cc1ccc2c(c1)[C@@H](NC(=O)c1cccc(Cl)c1)[C@H](O)C1(CCS(=O)(=O)CC1)O2 [Compound 201, (3S,4R)-3-Chloro-N-[6-cyano-3-hydroxy-2,2-(tetrahydro-4-sulfonylpyranyl)-chroman-4-yl]-benzamide]	> 30
CC1(C)C=C(n2ccnc2-c2ccccc2)c2cc(C#N)ccc2O1 [Compound 61, 2,2-Dimethyl-4-(2-phenyl-imidazol-1-yl)-2H-chromene-6-carbonitrile]	> 30
CCN(CC)S(=O)(=O)c1ccc2c(c1)[C@@H](Nc1noc3c(Cl)cccc13)[C@H](O)C(C)(C)O2 [Compound 82, 4R-(7-Chloro-benzo[d]isoxazol-3-ylamino)-3S-hydroxy-2,2-dimethyl-chroman-6-sulfonic acid diethylamide]	26.6
CC1(C)Oc2ccc(C(=O)c3ccccc3)cc2[C@@H](Oc2noc3cc(Cl)ccc23)[C@@H]1O [Compound 95]	20.7
CC1(C)Oc2ccc(C#N)cc2[C@@H](n2ccnc2-c2ccccc2)[C@@H]1O (racemic) [Compound 47, 3-Hydroxy-2,2-dimethyl-4-(2-phenyl-imidazol-1-yl)-chroman-6-carbonitrile]	> 30
CCN(CC)S(=O)(=O)c1ccc2c(c1)[C@@H](Oc1noc3cc(Cl)ccc13)[C@H](O)C(C)(C)O2 [Compound 79, 4R-(6-Chloro-benzo[d]isoxazol-3-yloxy)-3S-hydroxy-2,2-dimethyl-chroman-6-sulfonic acid diethylamide]	> 30
CCN(CC)S(=O)(=O)c1ccc2c(c1)[C@@H](Oc1noc3ccc(Cl)cc13)[C@H](O)C(C)(C)O2 [Compound 85, 4R-(5-Chloro-benzo[d]isoxazol-3-yloxy)-3S-hydroxy-2,2-dimethyl-chroman-6-sulfonic acid diethylamide]	> 30
CC1(C)Oc2ccc(C#N)cc2[C@@H](S(=O)(=O)c2nc3cc(Cl)c(F)cc3[nH]2)[C@@H]1O [Compound 72, 4R-(5-Chloro-6-fluoro-1H-benzoimidazole-2-sulfonyl)-3S-hydroxy-2,2-dimethyl-chroman-6-carbonitrile]	20.2
CC1(C)Oc2ccc(C#N)cc2[C@@H](n2oc3cc(Cl)ccc3c2=O)[C@@H]1O [Compound 117, 4R-(6-Chloro-3-oxo-3H-benzo[d]isoxazol-2-yl)-3S-hydroxy-2,2-dimethyl-chroman-6-carbonitrile]	> 30
CC1(C)Oc2ccc(C#N)cc2[C@@H](n2nc(N)c3ccccc32)[C@@H]1O [Compound 37, 4R-(3-Amino-indazol-1-yl)-3S-hydroxy-2,2-dimethyl-chroman-6-carbonitrile]	20
CC1(C)Oc2ccc(Cl)cc2[C@@H](n2ccnc2-c2ccccc2)[C@@H]1O (racemic) [Compound 49, 6-Chloro-2,2-dimethyl-4-(2-phenyl-imidazol-1-yl)-chroman-3-ol]	> 30
N#Cc1ccc2c(c1)[C@@H](NC(=O)c1cccc(Cl)c1)[C@H](OC(=O)c1cccc(Cl)c1)C1(CCS(=O)(=O)CC1)O2 [Compound 202, (3S,4R)-3-Chloro-benzoic acid 4-(3-chloro-benzoylamino)-6-cyano-2,2-(tetrahydro-4-sulfonylpyranyl)-chroman-3-yl ester]	> 30

Next, values leading:

EC50 [µM]	Structure (SMILES)
19.9	CC1(C)C=C(n2nc(-c3ccc(Cl)cc3)ccc2=O)c2cc(C#N)ccc2O1 [Compound 57, 4-[3-(4-Chloro-phenyl)-6-oxo-6H-pyridazin-1-yl]-2,2-dimethyl-2H-chromene-6-carbonitrile]
7.8	CC1(C)Oc2ccc(C#N)cc2[C@@H](Nc2nc(=O)c3ccccc3[nH]2)[C@@H]1O (racemic) [Compound 118, 3-Hydroxy-2,2-dimethyl-4-(4-oxo-1,4-dihydro-quinazolin-2-ylamino)-chroman-6-carbonitrile]
16.2	CC1(C)Oc2ccc(C#N)cc2[C@@H](n2nc(N)c3c(F)cccc32)[C@@H]1O [Compound 36, 4R-(3-Amino-4-fluoro-indazol-1-yl)-3S-hydroxy-2,2-dimethyl-chroman-6-carbonitrile]
3.9	CC1(C)Oc2ccc(C#N)cc2[C@@H](Oc2ccc(-c3ccccc3)nn2)[C@@H]1O (racemic) [Compound 52, 3-Hydroxy-2,2-dimethyl-4-(6-phenyl-pyridazin-3-yloxy)-chroman-6-carbonitrile]
6.18	CC1(C)Oc2ccc(C#N)cc2[C@@H](Sc2nc3cc(Cl)ccc3[nH]2)C1O (stereo in doubt) [Compound 29, (3S,4R)-4-(5-Chloro-1H-benzoimidazol-2-ylsulfanyl)-3-hydroxy-2,2-dimethyl-chroman-6-carbonitrile]
3.09	CC1(C)Oc2ccc(C#N)cc2[C@@H](Nc2nc3cc([N+](=O)[O-])ccc3s2)[C@@H]1O (racemic) [Compound 6, 3-Hydroxy-2,2-dimethyl-4-(5-nitro-benzothiazol-2-ylamino)-chroman-6-carbonitrile]
10.3	CC1(C)Oc2cc(Cl)c(Cl)cc2[C@@H](n2oc3cc(Cl)ccc3c2=O)[C@@H]1O [Compound 94, 6-Chloro-2-(6,7-dichloro-3S-hydroxy-2,2-dimethyl-chroman-4-yl)-R-benzo[d]isoxazol-3-one]
0.1	CC1(C)Oc2ccc(S(=O)(=O)c3ccccc3)cc2[C@@H](n2oc3cc(Cl)ccc3c2=O)[C@@H]1O [Compound 78, 2-(6-Benzenesulfonyl-3S-hydroxy-2,2-dimethyl-chroman-4-yl)-6-chloro-4R-benzo[d]isoxazol-3-one]
13.8	CC1(C)Oc2ccncc2[C@@H](n2cncc2-c2ccc(Cl)cc2)[C@@H]1O (racemic) [Compound 113, 4-[5-(4-Chloro-phenyl)-imidazol-1-yl]-2,2-dimethyl-3,4-dihydro-2H-pyrano[3,2-c]pyridin-3-ol]
9.12	CC1(C)Oc2ccc(C#N)cc2[C@@H](Nc2nc(=O)c3cc(Cl)ccc3[nH]2)[C@@H]1O [Compound 64, (3S,4R)-4-(6-Chloro-4-oxo-1,4-dihydro-quinazolin-2-ylamino)-3-hydroxy-2,2-dimethyl-chroman-6-carbonitrile]
16.6	CC1(C)Oc2ccc(Cl)cc2[C@@H](OC2=NN(c3ccccc3)CC2)[C@@H]1O (racemic) [Compound 59, 6-Chloro-2,2-dimethyl-4-(1-phenyl-4,5-dihydro-1H-pyrazol-3-yloxy)-chroman-3-ol]
2.6	CCOc1ccc2sc(N[C@@H]3c4cc(C#N)ccc4OC(C)(C)[C@H]3O)nc2c1 (racemic) [Compound 4, 4-(5-Ethoxy-benzothiazol-2-ylamino)-3-hydroxy-2,2-dimethyl-chroman-6-carbonitrile]
4.4	CC1(C)Oc2ccc(C#N)cc2[C@@H](n2nc(N)c3ccc(Br)cc32)[C@@H]1O [Compound 35, 4R-(3-Amino-6-bromo-indazol-1-yl)-3S-hydroxy-2,2-dimethyl-chroman-6-carbonitrile]
1.37	CC1(C)Oc2ccc(S(=O)(=O)c3ccccc3)cc2[C@@H](Nc2noc3ccc(Cl)cc23)[C@@H]1O [Compound 74, 6-Benzenesulfonyl-4R-(5-chloro-benzo[d]isoxazol-3-ylamino)-2,2-dimethyl-chroman-3S-ol]
7.33	COc1ccc(S(=O)(=O)c2ccc3c(c2)[C@@H](n2oc4cc(Cl)ccc4c2=O)[C@H](O)C(C)(C)O3)cc1 [Compound 98, 6-Chloro-2-[3S-hydroxy-6-(4-methoxy-benzenesulfonyl)-2,2-dimethyl-chroman-4-yl]-4R-benzo[d]isoxazol-3-one]

Reference: patent publication US7812183B2, “Benzopyran derivatives as potassium channel openers” (Janssen Pharmaceutica NV, priority 2005, dated 2010)
